# From patent US6716428B1, “Antigenic modification of polypeptides” (The Ohio State University Research Foundation, priority 1999, dated 2004)
# Where two headings read alike, the source gives them in different places.
# Legend:
# [1] = tested on: baboons; assay: Breeding of immunized baboons (pre-mate titer, ovulation, pregnancy), Diazo-β-HCG presensitized, Diazo-β-HCG-(111-145) booster; format: in vivo, baboon; details: for Pre-Mate Titer: baboon 2, matings No. 1-10 over approximately one year
# Method: Baboons were immunized initially with a beta subunit of HCG modified by diazotization in a manner similar to that described in conjunction with Example II. Following this initial administration, the baboons were injected 21 and 42 days later with the peptide of Structure (II) above which had been modified by the same diazotization process. The levels were maintained for a period of over one year.
# The Table presents the results of mating these animals ten times over a period of approximately one year. […] Such cross reactivity may be avoided by the utilization of the fragment conjugation procedures set forth in detail hereinabove.
# [2] = tested on: peptide used in the conjugate (Structure (II), (XII), (XIV), (X)); assay: Antibody level to the peptide of the conjugate in immunized mice (^125I antigen, double antibody technique); format: in vivo; details: for Antibody level to Structure (XII): 52 days; for Antibody Level to Peptide: mice, carrier series
# [3] = tested on: HCG; assay: Antibody level to HCG in immunized mice (^125I antigen, double antibody technique); format: in vivo; details: for Antibody level to CG: 52 days; for Antibody Level to HCG: mice, carrier series
# [4] = tested on: HCG; format: in vivo, rabbit
# [5] = tested on: female baboons; assay: Fertility rates (matings and pregnancies) of immunized female baboons; format: in vivo, baboon; details: CFA
substance,measurement,setting,value
"Diazo-β-HCG-(111-145): peptide of Structure (II) modified by diazotization, booster after presensitization with diazotized beta subunit of HCG (DDPRFQDSSSSKAPPPSLPSPSRLPGPSDTPILPQ; diazo conjugate; UniProt P0DN86 131-165, looked up, fragment)",Pre-Mate Titer,[1]; before Mating No. 2,4.10
same,Pre-Mate Titer,[1]; before Mating No. 3,4.00
same,Pre-Mate Titer,[1]; before Mating No. 4,3.89
same,Pre-Mate Titer,[1]; before Mating No. 5,3.76
same,Pre-Mate Titer,[1]; before Mating No. 6,5.00
same,Pre-Mate Titer,[1]; before Mating No. 7,4.75
same,Pre-Mate Titer,[1]; before Mating No. 8,4.20
same,Pre-Mate Titer,[1]; before Mating No. 9,4.25
same,antibody cross reactivity with LH,[1]; in vivo,antibody cross reactivity with LH was observed
"N-Palmitoyl-S-[2(R,S)-3-dipalmitoyloxy-propyl]-L-Cys-L-Ser-L-Ser-L-Asn-L-Ala-L-Glu [CGP 16940]",Antibody level to Structure (XII),[2],110.0 ng/mL
same,Antibody level to Structure (XII),"[2]; C3H/He mice, same conjugate",19.2 ng/mL
same,Antibody level to Structure (XII),"[2]; DBA/1 mice, same conjugate",173.0 ng/mL
same,Antibody level to Structure (XII),"[2]; SJL mice, same conjugate",369.0 ng/mL
same,Antibody level to CG,[3],1.0 ng/mL
same,Antibody level to CG,"[3]; C3H/He mice, same conjugate",<1.0 ng/mL
same,Antibody level to CG,"[3]; DBA mice, same conjugate",<1.0 ng/mL
same,Antibody level to CG,"[3]; SJL mice, same conjugate",8.6 ng/mL
same,HCG antibody levels compared with the CFA immunized rabbits,[4]; in vivo,significantly lower
NAc-Mur-L.Ala-D.isoGln-L.Ala-Cephalin [CGP 19835],Mean Antibody Level-^125I-HCG,"[4]; as E193, 4 weeks",286.7 M/L × 10^10
same,Mean Antibody Level-^125I-HCG,"[4]; as E193, 5 weeks",140.3 M/L × 10^10
same,Mean Antibody Level-^125I-HCG,"[4]; as E193, 6 weeks",172.0 M/L × 10^10
same,Mean Antibody Level-^125I-HCG,"[4]; as E193, 7 weeks",123.4 M/L × 10^10
same,Mean Antibody Level-^125I-HCG,"[4]; as E193, 8 weeks",138.9 M/L × 10^10
same,Mean Antibody Level-^125I-HCG,"[4]; as E193, 9 weeks",105.2 M/L × 10^10
same,Mean Antibody Level-^125I-HCG,"[4]; as E193, 10 weeks",151.3 M/L × 10^10
same,Mean Antibody Level-^125I-HCG,"[4]; as E193, 11 weeks",169.3 M/L × 10^10
same,Mean Antibody Level-^125I-HCG,"[4]; as E193, 12 weeks",107.8 M/L × 10^10
same,Mean Antibody Level-^125I-HCG,[4]; in vivo,19.3 M/L × 10^10
NGlycol-Mur-L. a -Abu-D.isoGln [DT-1],Mean Antibody Level-^125I-HCG,"[4]; as E193, 4 weeks",145.1 M/L × 10^10
same,Mean Antibody Level-^125I-HCG,"[4]; as E193, 5 weeks",184.1 M/L × 10^10
same,Mean Antibody Level-^125I-HCG,"[4]; as E193, 6 weeks",268.6 M/L × 10^10
same,Mean Antibody Level-^125I-HCG,"[4]; as E193, 7 weeks",371.5 M/L × 10^10
same,Mean Antibody Level-^125I-HCG,"[4]; as E193, 8 weeks",366.2 M/L × 10^10
same,Mean Antibody Level-^125I-HCG,"[4]; as E193, 9 weeks",654.8 M/L × 10^10
same,Mean Antibody Level-^125I-HCG,"[4]; as E193, 10 weeks",729.4 M/L × 10^10
same,Mean Antibody Level-^125I-HCG,"[4]; as E193, 11 weeks",627.5 M/L × 10^10
same,Mean Antibody Level-^125I-HCG,"[4]; as E193, 12 weeks",559.0 M/L × 10^10
same,HCG antibody levels compared with rabbits receiving adjuvants CGP 16940 and 12908,[4]; in vivo,significantly greater
same,Mean Antibody Level-^125I-HCG,[4]; in vivo,31.1 M/L × 10^10
"Structure (XII): residues 109-145 of beta-HCG, SEQ ID NO: 13; unconjugated in Table 11 (carrier None) (TCDDPRFQDSSSSKAPPPSLPSPSRLPGPSDTPILPQ; listed as Homo sapiens)",Antibody Level to Peptide,"[2]; peptide of Structure (XII), 21 days after primary immunization",1.3 ng/mL
same,Antibody Level to Peptide,[2]; 35 days,0.8 ng/mL
same,Antibody Level to HCG,[3]; 21 days,0.1 ng/mL
same,Antibody Level to HCG,[3]; 35 days,0.1 ng/mL
Tetanus Toxoid: carrier protein given alone to the control group,Fertility Rate,[5]; Mating Cycle 1,66.7%
same,Number Pregnant,[5]; Mating Cycle 1,10
same,Fertility Rate,[5]; Mating Cycle 2,80.0%
same,Number Pregnant,[5]; Mating Cycle 2,4
same,Fertility Rate,[5]; Mating Cycle 3,100.0%
same,Number Pregnant,[5]; Mating Cycle 3,1
same,Overall Fertility Rate,[5]; all matings of three mating cycles,71.4%
same,Total Number Pregnant,[5]; three mating cycles,15
